This passage reports EC50 results from patent US8969373B2, “HCV protease inhibitors” (Shanghai Tangrun Pharmaceuticals Co., Ltd., priority 2011, dated 2015).

SMILES strings stand for the structures.

The test system of test [1] is HCV (J399EM virus) in Huh7.5.1 cells. The test can be described thus: Inhibition of HCV replication in HCV infected human hepatocellular carcinoma cells (Huh7.5.1), HCV-EGFP fluorescence. The test is classed as cell-based. The conditions noted are these: Hepatitis C virus, Huh-7.5.1, 72 h, read-out: HCV infected human hepatocellular carcinoma cells in vitro EC50(nM). Here is the method: In Vitro Inhibitory Activity of Compounds in HCV Replication in HCV Infected Human Hepatocellular Carcinoma Cells (Huh7.5.1)
The preparation of Huh7.5.1cells: Huh 7.5.1 cells were seeded at a 96-well plate with 37 and 5% CO2 for 24 hours incubation.
Virus infection: Using the J399EM virus supernatants (moi≈0.1) to infect Huh7.5.1cells. At the same time, the no virus infected cell will be set up as the control. After 8 hours virus infection, the virus will be washed out with PBS.
Drug treatment: The different doses of samples (i.e. the compound Ik, wherein k=1, 2, 3, . . . 42) were added in J399EM infected Huh7.5.1 cells, the each dose for duplicate. At the same time the no sample added in wells will be set up as the control. The test dose of sample is starting from 25 nM or 400 nM, with quarter dilution, 5 doses of sample will be added in the test wells, respectively, then continued for 72 hours incubation.
HCV-EGFP fluorescence detection: After samples treatment for 72 hours, the autofluorescence of HCV-EGFP were measured by the luminometer with excitation of 488 nm, and emission of 516 nm. The related fluorescence unit (RFU) of samples will be read out and used for calculating the inhibitory rates of compounds in HCV replication.

The test system of test [2] is HCV replicon (pSGR-399LM) in Huh7 cells. The test can be described thus: Inhibitory activity in the HCV replicon system (Renilla luciferase). The conditions noted are these: Hepatitis C virus, Huh-7, pSGR-399LM replicon Huh7 cells, 72 hr. In kind it is cell-based. Here is the method:
The Inhibitory Activity of Compounds in the HCV Replicon System
HCV replicon cell-line: The Huh7 cells were transfected with pSGR-399LM replicon DNA and cultured in the DMEM containing 10% FBS and 0.5 mg/mL G418. The cells were split at 1:3 to 1:5 every 3-4 days. The transfected cells were seeded in 96-well plates and cultured at 37° C., 5% CO2 for 24 hr.
Treatment with samples: To the HCV replicon Huh7 cells-line were added different concentration of the samples (i.e. compound Ik, wherein k=1, 2, 3 . . . 42), the each concentration for duplicate, and set no sample control wells. The concentration started at 400 nM, with quarter dilution to form five different concentrations of samples, that is 400 nM, 100 nM, 25 nM, 6.25 nM and 1.56 nM. The samples were added separately, and continued to incubated for 72 hr.
Fluorescence detection: After 72 hr treatment with sample, the cells were lysed and added with Renilla luciferase substrate to detect luminescent signal. The relative luminescent unit (RLU) in the luminometer was read out and used to calculate the inhibition rate of HCV.
Background: In antiviral work, replicon cells carry a viral genome segment that copies itself.

For the compound `C=C[C@@H]1C[C@]1(NC(=O)[C@@H]1C[C@@H](Oc2cc(-c3ccccc3)nc3c2oc2ccc(OC)c(Cl)c23)CN1C(=O)[C@@H](NC(=O)OC1CCCC1)C(C)(C)C)C(=O)NS(=O)(=O)C1CC1` [Compound 22], the EC50 in test [1] and in test [2] was under 100 nM throughout.

`C=C[C@@H]1C[C@]1(NC(=O)[C@@H]1C[C@@H](Oc2cc(-c3csc(C(C)(C)O)n3)nc3c2oc2ccc(OC)c(Br)c23)CN1C(=O)[C@@H](NC(=O)OC(C)(C)C)C(C)(C)C)C(=O)NS(=O)(=O)C1CC1` [Compound 26]: the 50% effective concentration (EC50) in test [1] and in test [2] was under 100 nM throughout.

In the case of `C=C[C@@H]1C[C@]1(NC(=O)[C@@H]1C[C@@H](Oc2cc(-c3ccccc3)nc3c2oc2ccc(OC)c(Cl)c23)CN1C(=O)[C@@H](NC(=O)OC(C)(C)C)C(C)(C)C)C(=O)NS(=O)(=O)C1CC1` [Compound 23], the 50% effective concentration (EC50) in test [1] and in test [2] was under 100 nM throughout.

For the compound `C=C[C@@H]1C[C@]1(NC(=O)[C@@H]1C[C@@H](Oc2cc(-c3ccccc3)nc3c2oc2ccc(OC)cc23)CN1C(=O)[C@@H](NC(=O)OC(C)(C)C)C(C)(C)C)C(=O)NS(=O)(=O)C1CC1` [Compound 3, tert-butyl(S)-1-((2S,4R)-2-((1R,2S)-1-(cyclopropylsulfonylcarbamoyl)-2-vinylcyclopropylcarbamoyl)-4-(8-methoxy-2-phenylbenzofuro [3,2-b]pyridin-4-yloxy)pyrrolidin-1-yl)-3,3-dimethyl-1-oxobutan-2-yl carbamate], the EC50 in test [1] is 100 to 1000 nM; in test [2] it was under 100 nM.

`C=C[C@@H]1C[C@]1(NC(=O)[C@@H]1C[C@@H](Oc2cc(-c3ccccc3)nc3c2sc2cccc(Cl)c23)CN1C(=O)[C@@H](NC(=O)OC(C)(C)C)C(C)(C)C)C(=O)NS(=O)(=O)C1CC1` [Compound 1]: the EC50 in test [1] and in test [2] was 100 to 1000 nM each time.

As to `C=C[C@@H]1C[C@]1(NC(=O)[C@@H]1C[C@@H](Oc2cc(-c3ccccc3)nc3c2oc2ccccc23)CN1C(=O)[C@@H](CC(=O)N1CCCCC1)C(C)(C)C)C(=O)NS(=O)(=O)C1CC1` [Compound 37], the half-maximal effective concentration (EC50) in test [1] and in test [2] was 100 to 1000 nM in each case.

Regarding `C=C[C@@H]1C[C@]1(NC(=O)[C@@H]1C[C@@H](Oc2cc(-c3ccccc3)nc3c2oc2ccc(Cl)cc23)CN1C(=O)[C@@H](NC(=O)OC(C)(C)C)C(C)(C)C)C(=O)NS(=O)(=O)C1CC1` [Compound 4, tert-butyl(S)-1-((2S,4R)-4-(8-chloro-2-phenylbenzofuro[3,2-b]pyridin-4-yloxy)-2-((1R,2S)-1-(cyclopropylsulfonylcarbamoyl)-2-vinylcyclopropylcarbamoyl)pyrrolidin-1-yl)-3,3-dimethyl-1-oxobutan-2-yl carbamate], the concentration giving a half-maximal response (EC50) is 100 to 1000 nM in test [1] and under 100 nM in test [2].

As to `C=C[C@@H]1C[C@]1(NC(=O)[C@@H]1C[C@@H](Oc2nc3c4cc(Cl)ccc4oc3c3ccc(Cl)cc23)CN1C(=O)[C@@H](NC(=O)OC(C)(C)C)C(C)(C)C)C(=O)NS(=O)(=O)C1CC1` [Compound 33], the EC50 in test [1] and in test [2] was 100 to 1000 nM each time.

Turning to `C=C[C@@H]1C[C@]1(NC(=O)[C@@H]1C[C@@H](Oc2cc(-c3ccccc3)nc3c2oc2ccc(Br)cc23)CN1C(=O)[C@@H](NC(=O)OC(C)(C)C)C(C)(C)C)C(=O)NS(=O)(=O)C1CC1` [Compound 8], the concentration giving a half-maximal response (EC50) is 100 to 1000 nM in test [1] and under 100 nM in test [2].

In the case of `C=C[C@@H]1C[C@]1(NC(=O)[C@@H]1C[C@@H](Oc2cc(-c3ccccc3)nc3c2oc2ccc(OC)cc23)CN1C(=O)[C@@H](NC(=O)OC1CCCC1)C(C)(C)C)C(=O)NS(=O)(=O)C1CC1` [Compound 21], the concentration for a half-maximal effect (EC50) in test [1] was 100 to 1000 nM; in test [2], under 100 nM.

Turning to `C=C[C@@H]1C[C@]1(NC(=O)[C@@H]1C[C@@H](Oc2nc3c4ccc(F)cc4sc3c3ccccc23)CN1C(=O)[C@@H](NC(=O)OC(C)(C)C)C(C)(C)C)C(=O)NS(=O)(=O)C1CC1` [Compound 12], the concentration for a half-maximal effect (EC50) in test [1] was 100 to 1000 nM; in test [2], under 100 nM.

With `CC(C)(C)OC(=O)N[C@H]1CCCCC/C=C\[C@@H]2C[C@@]2(C(=O)NS(=O)(=O)C2CC2)NC(=O)[C@@H]2C[C@@H](Oc3nc4c5ccccc5oc4c4ccccc34)CN2C1=O` [Compound 6], the EC50 in test [1] and in test [2] was under 100 nM each time.

For the compound `COc1ccc2oc3c4ccc(Cl)cc4c(O[C@@H]4C[C@H]5C(=O)N[C@]6(C(=O)NS(=O)(=O)C7CC7)C[C@H]6/C=C\CCCCC[C@H](NC(=O)OC(C)(C)C)C(=O)N5C4)nc3c2c1` [Compound 19], the EC50 in test [1] and in test [2] was under 100 nM each time.

As to `C=C[C@@H]1C[C@]1(NC(=O)[C@@H]1C[C@@H](Oc2cc(-c3ccccc3)nc3c2sc2ccccc23)CN1C(=O)[C@@H](NC(=O)OC(C)(C)C)C(C)(C)C)C(=O)NS(=O)(=O)C1CC1` [Compound 9], the values for the half-maximal effective concentration (EC50) in test [1] and in test [2] were 100 to 1000 nM and under 100 nM, respectively.

Turning to `C=C[C@@H]1C[C@]1(NC(=O)[C@@H]1C[C@@H](Oc2cc(-c3ccccc3)nc3c2oc2ccc(OC)c(Br)c23)CN1C(=O)[C@@H](NC(=O)OC(C)(C)C)C(C)(C)C)C(=O)NS(=O)(=O)C1CC1` [Compound 27], the EC50 in test [1] and in test [2] was under 100 nM in each case.

With `C=C[C@@H]1C[C@]1(NC(=O)[C@@H]1C[C@@H](Oc2nc3c4ccccc4oc3c3ccc(Cl)cc23)CN1C(=O)[C@@H](NC(=O)OC1CCCC1)C(C)(C)C)C(=O)NS(=O)(=O)C1CC1` [Compound 20], the EC50 in test [1] and in test [2] was under 100 nM in each case.

Regarding `C=C[C@@H]1C[C@]1(NC(=O)[C@@H]1C[C@@H](Oc2cc(-c3csc(C(C)C)n3)nc3c2oc2ccc(OC)c(Cl)c23)CN1C(=O)[C@@H](NC(=O)OC(C)(C)C)C(C)(C)C)C(=O)NS(=O)(=O)C1CC1` [Compound 24], the half-maximal effective concentration (EC50) in test [1] and in test [2] was under 100 nM in each case.

Turning to `C=C[C@@H]1C[C@]1(NC(=O)[C@@H]1C[C@@H](Oc2cc(-c3csc(C(C)(C)O)n3)nc3c2oc2ccc(OC)c(Cl)c23)CN1C(=O)[C@@H](NC(=O)OC(C)(C)C)C(C)(C)C)C(=O)NS(=O)(=O)C1CC1` [Compound 25], the concentration giving a half-maximal response (EC50) in test [1] and in test [2] was under 100 nM each time.

Turning to `O=C1N[C@]2(C(=O)NS(=O)(=O)C3CC3)C[C@H]2/C=C\CCCCC[C@H](CC(=O)N2CCCCC2)C(=O)N2C[C@H](Oc3cc(-c4ccccc4)nc4c3oc3ccccc34)C[C@@H]12` [Compound 36], the EC50 in test [1] was 100 to 1000 nM; in test [2] it was under 100 nM.

Regarding `C=C[C@@H]1C[C@]1(NC(=O)[C@@H]1C[C@@H](Oc2nc3c4cc(OC)ccc4oc3c3ccc(Cl)cc23)CN1C(=O)[C@@H](NC(=O)OC(C)(C)C)C(C)(C)C)C(=O)NS(=O)(=O)C1CC1` [Compound 32], the concentration giving a half-maximal response (EC50) is 100 to 1000 nM in test [1] and under 100 nM in test [2].

For the compound `C=C[C@@H]1C[C@]1(NC(=O)[C@@H]1C[C@@H](Oc2nc3c4ccccc4oc3c3ccc(Br)cc23)CN1C(=O)[C@@H](NC(=O)OC(C)(C)C)C(C)(C)C)C(=O)NS(=O)(=O)C1CC1` [Compound 30], the EC50 in test [1] and in test [2] was 100 to 1000 nM in each case.

In the case of `C=C[C@@H]1C[C@]1(NC(=O)[C@@H]1C[C@@H](Oc2nc3c4ccccc4oc3c3ccc(OC)cc23)CN1C(=O)[C@@H](NC(=O)OC(C)(C)C)C(C)(C)C)C(=O)NS(=O)(=O)C1CC1` [Compound 31], the EC50 in test [1] and in test [2] was 100 to 1000 nM in each case.

Consider `C=C[C@@H]1C[C@]1(NC(=O)[C@@H]1C[C@@H](Oc2nc3c4cc(OC)ccc4oc3c3ccccc23)CN1C(=O)[C@@H](NC(=O)OC(C)(C)C)C(C)(C)C)C(=O)NS(=O)(=O)C1CC1` [Compound 15], for which the half-maximal effective concentration (EC50) in test [1] and in test [2] was 100 to 1000 nM throughout.

As to `C=C[C@@H]1C[C@]1(NC(=O)[C@@H]1C[C@@H](Oc2cc(-c3ccccc3)nc3c2oc2ccc(OC)c(Br)c23)CN1C(=O)[C@@H](NC(=O)OC1CCCC1)C(C)(C)C)C(=O)NS(=O)(=O)C1CC1` [Compound 28], the half-maximal effective concentration (EC50) in test [1] and in test [2] was under 100 nM throughout.

Turning to `CC(C)(C)OC(=O)N[C@H]1CCCCC/C=C\[C@@H]2C[C@@]2(C(=O)NS(=O)(=O)C2CC2)NC(=O)[C@@H]2C[C@@H](Oc3nc4c5ccc(F)cc5sc4c4ccccc34)CN2C1=O` [Compound 10], the concentration for a half-maximal effect (EC50) in test [1] and in test [2] was under 100 nM throughout.

On to `C=C[C@@H]1C[C@]1(NC(=O)[C@@H]1C[C@@H](Oc2nc3c4ccccc4oc3c3ccc(Cl)cc23)CN1C(=O)[C@@H](NC(=O)OC(C)(C)C)C(C)(C)C)C(=O)NS(=O)(=O)C1CC1` [Compound 29], for which the EC50 in test [1] and in test [2] was under 100 nM throughout.

As a reminder, the EC50 is the concentration at which the effect is half-maximal.
